# How the values were obtained:
# [1] = Binding affinity to tobacco 14-3-3epsilon T14-3eDC mutant expressed in Escherichia coli assessed as Kd for 14-3-3epsilon binding to H+-ATPase peptide motif by surface plasmon resonance assay; parameters: species or system Nicotiana tabacum
# [2] = molecular target: T1, 14-3-3 protein zeta/delta (Homo sapiens, UniProt P63104); test: Binding affinity to human GST-tagged 14-3-3zeta expressed in Escherichia coli assessed as Kd for 14-3-3zeta binding to H+-ATPase peptide motif by isothermal titration calorimetric method
# T1 sequence (P63104 whole entry): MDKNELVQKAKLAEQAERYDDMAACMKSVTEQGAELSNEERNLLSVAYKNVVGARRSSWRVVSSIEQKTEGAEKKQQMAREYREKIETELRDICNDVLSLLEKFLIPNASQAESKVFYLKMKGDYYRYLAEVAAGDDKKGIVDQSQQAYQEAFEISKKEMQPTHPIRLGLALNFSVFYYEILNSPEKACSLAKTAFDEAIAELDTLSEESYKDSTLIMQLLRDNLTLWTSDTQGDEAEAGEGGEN
Kd [2] [nM],SMILES,Kd [1] [µM]
,O=C(C1=C(O)C(=O)N(c2ccc(O)c(C(=O)O)c2)C1c1ccc([N+](=O)[O-])cc1)c1ccccc1 (stereo not drawn),80
700,C=CC(C)(C)OC[C@H]1O[C@H](O[C@@H]2C3=C([C@H](C)COC(C)=O)C[C@H](O)[C@]3(C)/C=C3/[C@@H](COC)CC[C@H]3[C@@H](C)[C@H]2O)[C@H](O)[C@@H](OC(C)=O)[C@@H]1O,
,CC(C)CC(NC(=O)[C@H](O)[C@H](N)Cc1ccccc1)C(=O)O (stereo partly drawn),1.8
